Experiments:
[1] = biological target: T1, α2AAR (α2A-adrenergic receptor) (Homo sapiens, UniProt P08913); assay: α2AAR FLIPR assay (agonist activity); type: cell-based; settings: FLIPR, α2AAR cell line hosted in HEK293 cells; read-out: α2A agonist activity (EC50)
T1 construct: expressed in transfected cells; host or cells: HEK293
T1 sequence (P08913 1-465): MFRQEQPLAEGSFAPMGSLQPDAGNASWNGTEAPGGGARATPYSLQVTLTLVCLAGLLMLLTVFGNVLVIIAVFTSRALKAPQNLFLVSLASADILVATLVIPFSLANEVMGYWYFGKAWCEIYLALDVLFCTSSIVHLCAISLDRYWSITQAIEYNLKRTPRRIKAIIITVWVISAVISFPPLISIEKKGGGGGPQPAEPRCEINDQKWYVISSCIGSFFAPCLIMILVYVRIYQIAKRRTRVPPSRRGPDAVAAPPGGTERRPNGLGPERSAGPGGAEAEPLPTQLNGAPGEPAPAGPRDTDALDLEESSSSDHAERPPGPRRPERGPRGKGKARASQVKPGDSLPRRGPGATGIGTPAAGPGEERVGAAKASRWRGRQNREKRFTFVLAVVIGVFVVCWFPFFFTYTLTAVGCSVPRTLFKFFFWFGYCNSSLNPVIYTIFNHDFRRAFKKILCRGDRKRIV
Description: This experimental protocol involved cell seeding and a FLIPR assay using the α2AAR (α2A-adrenergic receptor) cell line hosted in HEK293 cells. […] On Day 1, the cell seeding process started with the removal of the culture medium, followed by rinsing the cells with DPBS (21-031-CVC, Corning). […] The cells were detached, resuspended in growth media, and centrifuged at room temperature at 1000 rpm for 5 minutes. After discarding the supernatant, the cell pellet was resuspended in growth media to a concentration of 10× 10^5 cells per mL. This suspension was added to 384-well plates (19-Jul-38, Greiner) at 20 μL per well and incubated overnight at 37° C. in 5% CO2.
A 250 mM Probenecid solution was prepared in this buffer. The Fluo-4 Direct™ Loading Buffer was made by dissolving Fluo-4 Direct™ crystals (F10471, Invitrogen) in the FLIPR Assay Buffer and adding Probenecid. The buffer was then vortexed and allowed to stand for over 5 minutes, shielded from light. For the FLIPR procedure, testing compounds for agonist activite were serially diluted and transferred to a 384-well compound plate (25-Jan-39, Greiner). The cell plate was then treated with 2× Fluo-4 Direct™ loading buffer and incubated for 50 minutes at 37° C. in a 5% CO2 atmosphere, followed by 10 minutes at room temperature. Subsequently, the FLIPR assay buffer was added to the compound plate, which is then centrifuged.
The cell plate was analyzed in the FLIPR Tetra+ System for fluorescence signals. For the agonist test, reference compounds were added to the cell plates, and fluorescence was measured. The “Max-Min” calculation began from Read 1 to the maximum allowed. The data were analyzed using Prism software to calculate activation percentage for agonists and inhibition percentage for antagonists. The results were then fitted using specific models to determine EC50 for agonists.
The experimental protocol utilized various reagents and apparatus, including Penicillin/Streptomycin (100×) (SV30010, Hyclone), Poly-L-lysine hydrobromide (P1399, Sigma), and different types of 384-well plates such as the 384-Well PP 2.0 Microplate (PP-0200, LABCYTE) and 384 well Low Dead Volume Microplate (LP-0200, LABCYTE). The use of specific reference compounds like UK14304 was also integral to the assay.

α2AAR = biological target: T2, α2AAR (Homo sapiens, UniProt P08913); assay: α2AAR binding assay ([3H]-RX 821002 radioligand); settings: [3H]-RX 821002 0.5 nM, HEK293 membranes; read-out: α2A affinity (Ki)
T2 construct: host or cells: HEK293 (membranes)
T2 sequence (P08913 1-465): T1 sequence (P08913 1-465)
Description: The α2AR Binding Assay was conducted using a stable HEK293 cell line, specifically constructed by WuXi AppTec for targeting α2AAR. […] Both the assay and wash buffers consist of 50 mM Tris-HCl at a pH of 7.4 (Tris base, Sigma, T1503-1 KG).
The procedure initiated with the preparation of test compounds and a reference compound, yohimbine (Sigma, Y3125), through an 8-point 4-fold serial dilution, transferring 1 μL of each to the assay plate. […] After scaling, the plates were agitated at room temperature for one hour. Subsequently, the Unifilter-96 GF/C filter plates were pre-soaked with 0.3% PEI (Sigma, P3143) for at least half an hour. The reaction mixtures were then filtered and washed four times with cold wash buffer using a Perkin Elmer Cell harvester. Post-filtration, the plates were dried at 50° C. for one hour. […] The top of the plates was then sealed with TopSeal-A sealing film. The trapped 3H was quantified using a Perkin Elmer MicroBeta2 Reader. […] Finally, the data were analyzed with Prism 5.0 software, employing the “log (inhibitor) vs. response-Variable slope” model for data fitting. This comprehensive process ensured precise assessment of the binding affinity of compounds to the α2AAR.

SMILES: Cc1cccc(C(c2cccc(NS(=O)(=O)C[C@H]3CCCO3)c2)c2c[nH]cn2)c1C (stereo partly drawn) [compound 166]
- EC50 [1]: 10 to 50 nM
- Ki (α2AAR): 10 to 50 nM

SMILES: Cc1cccc(C(c2cccc(-c3cnnn3C3CCOCC3)c2)c2c[nH]cn2)c1C (stereo not drawn) [compound 220]
- EC50 [1]: < 10 nM
- Ki (α2AAR): < 10 nM

SMILES: Cc1cccc(C(Cc2ccc(C(C)c3nnn[nH]3)cc2)c2c[nH]cn2)c1C (stereo not drawn) [compound 227]
- EC50 [1]: 10 to 50 nM
- Ki (α2AAR): 10 to 50 nM

SMILES: Cc1cccc(C(c2c[nH]cn2)c2cccc(C(N)=O)c2F)c1C (stereo not drawn) [compound 27]
- EC50 [1]: 10 to 50 nM
- Ki (α2AAR): < 10 nM

SMILES: Cc1cccc(C(c2cccc(-c3cnnn3C)c2)c2c[nH]cn2)c1C (stereo not drawn) [compound 164]
- EC50 [1]: 10 to 50 nM
- Ki (α2AAR): 10 to 50 nM

SMILES: Cc1cccc(C(Cc2ccc(CC(=O)O)cc2)c2c[nH]cn2)c1C (stereo not drawn) [compound 206]
- EC50 [1]: 50 to 250 nM
- Ki (α2AAR): 50 to 250 nM

SMILES: CSCCC(=O)Nc1cccc(C(c2c[nH]cn2)c2cccc(C)c2C)c1 (stereo not drawn) [compound 63]
- EC50 [1]: 10 to 50 nM
- Ki (α2AAR): 10 to 50 nM

SMILES: Cc1cccc(C(c2cccc(NCCC#N)c2)c2c[nH]cn2)c1C (stereo not drawn) [compound 32]
- EC50 [1]: 50 to 250 nM
- Ki (α2AAR): 50 to 250 nM

SMILES: Cc1cccc(C(Cc2ccc(NC(=O)C3CCOCC3)nc2)c2c[nH]cn2)c1C (stereo not drawn) [compound 242]
- EC50 [1]: 10 to 50 nM
- Ki (α2AAR): 50 to 250 nM

SMILES: Cc1cccc(C(Cc2ccc3c(c2)OCC(=O)N3)c2c[nH]cn2)c1C (stereo not drawn) [compound 225]
- EC50 [1]: < 10 nM
- Ki (α2AAR): < 10 nM

SMILES: Cc1cccc(C(Cc2ccc(NC(=O)C3CCOCC3)cc2)c2c[nH]cn2)c1C (stereo not drawn) [compound 157]
- EC50 [1]: < 10 nM
- Ki (α2AAR): < 10 nM

SMILES: Cc1cccc(C(COCCNS(=O)(=O)CC2CCOCC2)c2c[nH]cn2)c1C (stereo not drawn) [compound 139]
- EC50 [1]: 10 to 50 nM
- Ki (α2AAR): 10 to 50 nM

SMILES: Cc1cccc(C(c2cccc(NC(=O)CC[n+]3ccccc3)c2)c2c[nH]cn2)c1C (stereo not drawn) [compound 143]
- EC50 [1]: 50 to 250 nM
- Ki (α2AAR): 10 to 50 nM

SMILES: CNC(=O)NCCOCCOCC(c1c[nH]cn1)c1cccc(C)c1C (single isomer, unassigned) [17-B]
- EC50 [1]: 10 to 50 nM
- Ki (α2AAR): 10 to 50 nM

SMILES: Cc1cccc(C(Cc2ccc3c(c2)OCCO3)c2c[nH]cn2)c1C (stereo not drawn) [compound 196]
- EC50 [1]: 50 to 250 nM
- Ki (α2AAR): < 10 nM

SMILES: Cc1cccc(C(Cc2ccc3c(c2)NCCN3)c2c[nH]cn2)c1C (stereo not drawn) [compound 246]
- EC50 [1]: 10 to 50 nM
- Ki (α2AAR): 10 to 50 nM

SMILES: Cc1cccc(C(c2c[nH]cn2)c2cccc(-c3cnnn3C)c2F)c1C (stereo not drawn) [compound 201]
- EC50 [1]: 10 to 50 nM
- Ki (α2AAR): < 10 nM

SMILES: Cc1cccc(C(Cc2ccc(-c3nnn(C)n3)cc2)c2c[nH]cn2)c1C (stereo not drawn) [compound 241]
- EC50 [1]: 10 to 50 nM
- Ki (α2AAR): 10 to 50 nM

SMILES: Cc1cccc(C(c2cccc(NS(=O)(=O)CCN3CCOCC3)c2)c2c[nH]cn2)c1C (stereo not drawn) [compound 94]
- EC50 [1]: 50 to 250 nM
- Ki (α2AAR): 50 to 250 nM

SMILES: Cc1cn(-c2ccc(CC(c3c[nH]cn3)c3cccc(C)c3C)cc2)nn1 (stereo not drawn) [compound 211]
- EC50 [1]: 10 to 50 nM
- Ki (α2AAR): < 10 nM

SMILES: COc1ccccc1C(Cc1cccc(NS(C)(=O)=O)c1)N=C1NCCN1 (stereo not drawn) [compound 505, N-{3-[2-(imidazolidin-2-ylideneamino)-2-(2-methoxyphenyl)ethyl]phenyl}methanesulfonamide]
- EC50 [1]: 50 to 250 nM
- Ki (α2AAR): < 10 nM

SMILES: Cc1cccc(C(Cc2ccc(OCC(=O)O)cc2)c2c[nH]cn2)c1C (stereo not drawn) [compound 239]
- EC50 [1]: 10 to 50 nM
- Ki (α2AAR): 50 to 250 nM

SMILES: Cc1cccc(C(c2cccc(NC(=O)CC3CCCCO3)c2)c2c[nH]cn2)c1C (stereo not drawn) [compound 96]
- EC50 [1]: 10 to 50 nM
- Ki (α2AAR): < 10 nM

SMILES: Cc1cccc(C(Cc2ccc3c(c2)OCCN3)c2c[nH]cn2)c1C (stereo not drawn) [compound 235]
- EC50 [1]: 10 to 50 nM
- Ki (α2AAR): < 10 nM

SMILES: Cc1cccc(C(Cc2cccc(NS(=O)(=O)CC3CCOCC3)c2)c2c[nH]cn2)c1C (single isomer, unassigned) [112-B]
- EC50 [1]: 10 to 50 nM
- Ki (α2AAR): < 10 nM

SMILES: Cc1cccc(C(Cc2ccc(NC(=O)CC3CCOC3)cc2)c2c[nH]cn2)c1C (stereo not drawn) [compound 171]
- EC50 [1]: < 10 nM
- Ki (α2AAR): < 10 nM

SMILES: CONC(=O)c1cccc(C(c2c[nH]cn2)c2cccc(C)c2C)c1 (stereo not drawn) [compound 1]
- EC50 [1]: 50 to 250 nM
- Ki (α2AAR): 50 to 250 nM
